Data as given in PMC7180617, “Biological Evaluation of 3-Benzylidenechromanones and Their Spiropyrazolines-Based Analogues” (Molecules, 2020).
Values joined by “and” are separate entries in the source; they are usually repeats but may differ in a detail not shown here. Equal entries are not always repeated.

What was measured:
NALM-6 cells = experiment: MTT cytotoxicity assay, NALM-6; type: cell-based, human; conditions: 46 h + 2 h incubation
Experimental: (§1) The first stage of the study used the MTT viability test to determine the cytotoxicity of ten compounds, i.e., 3-arylidenechromanone, 3-arylideneflavanone, spirochromanone and spiro- flavanone analogues, against four human cancer cell lines: HL-60, NALM-6, WM-115 and COLO-205.
(§2) Cytotoxicity was tested against human skin melanoma cells (WM-115, ECACC, Salisbury, UK), two human leukemia cell lines, viz. promyelocytic leukemia (HL-60) and lymphoblastic leukemia (NALM-6), and human colon adenocarcinoma cells (COLO-205). The cell lines COLO-205, WM-115 and HL-60 used in this work came from the ATCC American Type Culture Collection (Manassas, VA, USA), whereas the NALM-6 cell line was purchased from the German Collection of Microorganisms and Cell Cultures (Braunschweig, Germany). The leukaemia cells and colon adenocarcinoma were cultured in RPMI 1640 medium (Invitrogen, Grand Island, NY, USA) supplemented with 10% fetal bovine serum (FBS; Invitrogen) and gentamicin (25 µg/mL; KRKA, Novo Mesto, Slovenia). For melanoma WM-115 cells, Dulbecco’s minimal essential medium (DMEM; Invitrogen) was used. All cell lines were cultured at 37 °C in a humidified atmosphere of 5% CO2 in air.
(§3) For all experiments, the studied compounds were dissolved in DMSO (Sigma-Aldrich) and were further diluted in culture medium to obtain <0.1% DMSO concentration. In each experiment, controls with and without 0.1% DMSO were performed. The cytotoxicity of all compounds and of the reference compounds 4-chromanone and 3-benzylideneflavanone was determined by the MTT assay, i.e., 3-(4,5-dimethylthiazol-2-yl)-2,5-diphenyltetrazolium bromide (Sigma, St. Louis, MO, USA), which measures cellular dehydrogenase activity. Exponentially growing cells were seeded a day before the experiment onto a 96-well microplates (Nunc, Roskilde, Denmark) at a density up to 6–8 × 10^3 cells/well (depending on the cell line). Subsequently, various concentrations of the studied compounds freshly prepared in DMSO and diluted with complete culture medium were added. All compounds were tested for their cytotoxicity at a final concentration of 10^−7–10^−3 M. After 46 h of incubation with the studied compounds, the cells were treated with the MTT reagent and incubation was continued for another two hours. MTT – formazan crystals were dissolved in 20% sodium dodecyl sulphate (SDS, Sigma-Aldrich) and 50% DMF (Sigma-Aldrich) at pH 4.7; following this, absorbance was read at 570 nm on a multifunctional Victor ELISA-plate reader (Perkin Elmer, Turku, Finland). The IC50 values, i.e., the concentration of the test compound required to reduce the cell survival fraction to 50% of controls, were calculated from concentration-response curves and used as a measure of the sensitivity of the cells to a given treatment. As a control, cultured cells were grown in the absence of drugs. The data points represent the means of at least five to ten repeats ± standard deviation (S.D.).

HL-60 cells [1] = experiment: MTT cytotoxicity assay, HL-60; type: cell-based, human; conditions: 46 h + 2 h incubation
Experimental: as §1, §2, §3

[2] = Lipophilicity (logP) by RP-TLC; conditions: for chromatographic logP: RP-18 F254S TLC plates
Excerpt: Lipophilicity is one of the most important physicochemical properties in pharmaceutical research. It can be considered a key determinant of the pharmacokinetic properties of a drug. It is commonly measured by the partition coefficient between water and n-octanol, being expressed as logP [14]. […] Knowledge of the partition coefficient is valuable: it is frequently used in structure–activity relationship (SAR) and quantitative structure–activity relationship (QSAR) studies. The experimental lipophilicity of the synthesized compounds, viz. benzylideneflavanones, benzylidenechromanones and spiropyrazolines, was determined using RP-TLC. […] It is important to examine the relationship between structure of the compound and its lipophilicity and cytotoxicity.
The RP-TLC experiments were performed on TLC plates (5 × 10 cm) RP-18 F254S (Merck, Darmstadt, Germany). The synthesized compounds were dissolved in N,N-dimethylformamide DMF (2 mg/mL). […] A DMF-water solvent system was used as mobile phase. […] All experiments were performed at room temperature. The logP parameter was calculated using the equation from the calibration curve.

WM-115 cells = experiment: MTT cytotoxicity assay, WM-115; type: cell-based, human; conditions: MTT, 46 h + 2 h incubation
Experimental: as §1, §2, §3

COLO-205 cells = experiment: MTT cytotoxicity assay, COLO-205; type: cell-based, human; conditions: 46 h + 2 h incubation
Experimental: as §1, §2, §3

erythrocytes = experiment: Red blood cell morphology (phase-contrast microscopy); type: cell-based; conditions: 2% erythrocyte suspension, 37 °C, 1 h, phase contrast 400×
Experimental: Studies on erythrocyte morphology complement the erythrotoxicity studies because they provide information on potential immediate interactions of the tested compounds with the erythrocyte lipid bilayer, and the possibility of creating pathological forms of erythrocytes, which are not able to carry oxygen. The effects of the synthesized compounds, and the two reference compounds chromanone and flavanone, on the morphology of erythrocytes is shown in Figure 6. Briefly, 2% RBC suspension was incubated with 0.9% NaCl (control samples) or tested compounds at various concentrations corresponding to their activity towards cancer cell lines.
A 2% erythrocyte suspension was incubated at 37 °C for one hour with various concentrations of synthesized compounds. The morphology of the RBCs was examined by means of a phase contrast Opta-Tech inverted microscope, at 400× magnification, equipped with software (OptaView 7) for image analysis.

HL-60 cells [3] = experiment: Cell cycle analysis by flow cytometry (propidium iodide); type: cell-based, human; conditions: for cell cycle, G1, mean / cell cycle, G2/M, mean / cell cycle, S, mean: mean of n=2
Experimental: The next stage examined the effects of the selected compounds on cell cycle progression in HL-60 leukemia cells. […] One million HL-60 (subline CCL 240; cell type: promyeloblast) cells in 3 mL of RPMI 1640 supplemented with 20% FBS were seeded on 6-well plate. […] Fixed cells were stored in −20 °C for 2–3 days. Before analysis, cells were centrifuged (10 min, 1500 rpm, 4 °C) and washed twice with cold PBS. After the second wash, the cells were suspended in 1mL of PBS containing 100 μg of RNase A and incubated in 37 °C for 10 min. Next, 5 μL of solution of propidium iodide (1 mg/mL) was added to each sample and incubated in dark for 30 min at RT. Stained cells were analyzed by flow cytometry (FACS Calibur, BD Biosciences, San Jose, CA, USA). Data from 10,000 gated cells were collected using CellQuestPro software (Ver 6.0, Becton Dickinson) and cell cycle analysis was performed with ModFit LT software (Ver 3.2, Verity Software House, Topsham, ME, USA).

[4] = test system: red blood cells (RBC membrane integrity); experiment: Red blood cell lysis assay; type: cell-based; conditions: 2% RBC suspension, 37 °C, 1 h
Excerpt: All synthesized compounds with potential biological activity have to be tested for blood compatibility since xenobiotics will react with blood cells upon administration. In this case, biocompatibility refers to the quantification of cellular and plasma components of the blood. The measurement of the integrity of RBC membrane is considered a simple and reliable method for estimating hemocompatibility.
The studies on biological material were approved by the Bioethics Committee of the Medical University of Lodz, Poland (RNN/109/16/KE). The blood samples were obtained from healthy donors at the Blood Donation Centre in Lodz. The procedure for plasma preparation for erythrotoxicity studies was described previously. The influence of synthesized compounds as well as two reference compounds flavanone and chromanone on RBC membrane integrity was performed by lysis assay which was conducted according to our previous protocol. Briefly, 2% RBC suspension in 0.9% NaCl was incubated at 37 °C for one hour with the tested compounds at various concentrations corresponding to their activity towards cancer cell lines or 0.9% NaCl (control). The samples were centrifuged at 3000 rpm for 10 min and the absorbance of the supernatant was measured at 550 nm. The results are presented as percentage of haemolysis where a sample containing 10 μL of 2.0% v/v Triton X-100 was regarded as a positive control contributing to 100% of haemolysis. A sample containing saline solution represented spontaneous haemolysis of RBCs (control). The studies were performed on four biological samples obtained from different blood donors (n = 4). The results are presented as mean ± standard deviation (SD). The coefficient of variability for the method was counted: W = 9.51%, n = 5.

[5] = Figure S3, HL-60, 0.5 × IC50 (µM: quercetin 29, 1 1.5, 7 18, 10 4.7, 11 4.5, 12 6)
[6] = Figure S3, HL-60, 0.5 × IC50, each of two repetitions
[7] = Figure S3, HL-60, 1 × IC50 (µM: quercetin 58, 1 3, 7 35, 10 9.4, 11 9, 12 12)
[8] = Figure S3, HL-60, 1 × IC50, each of two repetitions

chromatographic logP [2]	Compound	IC50 (NALM-6 cells; MTT)	IC50 (HL-60 cells [1]; MTT)	IC50 (WM-115 cells)	IC50 (COLO-205 cells)	erythrocyte morphology (in words) (erythrocytes)	IC50 (WM-115 cells; Homo sapiens, WM-115, 48 h)	IC50 (COLO-205 cells; Homo sapiens, COLO 205, 48 h)	other results
–	N.N.O=C([O-])C1(C(=O)[O-])CCC1.[Pt+2] [Carboplatin, reference compound]	0.7 ± 0.2 µM	4.3 ± 1.3 µM	422 ± 50.2 µM	355 ± 73.7 µM	–	–	–	logP ([2]; RP-TLC, DMF-water mobile phase, room temperature): −2.30
–	N.N.[Cl][Pt][Cl] [Cisplatin, reference compound]	0.7 ± 0.3 µM	0.8 ± 0.1 µM	18.2 ± 4.3 µM	61.5 ± 3.2 µM	–	–	–	–
4.79	COc1ccc(/C=C2/C(=O)c3ccccc3OC2c2ccccc2)cc1 (centres unmarked) [Compound 1, (E)-3-(4-methoxybenzylidene)-2-phenylchroman-4-one]	–	–	–	–	extensive formation of echinocytes and anisocytes	58.1 ± 4.93 µM	51 ± 2.3 µM	IC50 (NALM-6 cells; Homo sapiens, NALM-6, 48 h, MTT): 49.8 ± 2.35 µM; cell cycle, G1, mean (HL-60 cells [3]; [5]): 23,52%; cell cycle, G2/M, mean (HL-60 cells [3]; [5]): 53,45%; cell cycle, S, mean (HL-60 cells [3]; [5]): 23,04%; cell cycle, G2/M, single repetitions (HL-60 cells [3]; [6]): 39,74% and 67,16%; cell cycle, S, single repetitions (HL-60 cells [3]; [6]): 21,38% and 24,69%; cell cycle, G1, mean (HL-60 cells [3]; Figure S3, HL-60, 1 × IC50 (µM in parenthesis: quercetin 58, 1 3, 7 35, 10 9.4, 11 9, 12 12)): 21,31%; cell cycle, G2/M, mean (HL-60 cells [3]; [7]): 53,71%; cell cycle, S, mean (HL-60 cells [3]; [7]): 25,02%; cell cycle, G2/M, single repetitions (HL-60 cells [3]; [8]): 68,86% and 38,56%; cell cycle, S, single repetitions (HL-60 cells [3]; [8]): 17,63% and 32,40%; IC50 (HL-60 cells [1]; Homo sapiens, HL-60, 48 h, MTT): 53.4 ± 2.49 µM
2.19	O=C1CCOc2ccccc21 [Compound 4-Chromanone, 4-Chromanone, reference compound]	–	–	–	–	echinocyte formation was observed	> 1000 µM	721.5 ± 6.4 µM	IC50 (NALM-6 cells; Homo sapiens, NALM-6, MTT): 674 ± 22.5 µM; IC50 (HL-60 cells [1]; Homo sapiens, HL-60, MTT): 677 ± 32.6 µM; effect on RBC hemolysis / erythrocyte membrane integrity (in words) [4]: Neither flavanone nor chromanone was found to have any unfavourable effect on the erythrocyte membrane over the whole concentration range
